The test system of this experiment is acne. In words: topical use of the exfoliating scrub on acne, washed off immediately after use. As to conditions: niacinamide in exfoliating cream, cream immediately removed. It counts as in vivo. From the text: The cream is applied to the affected area, typically the face, and is used in the same manner as other exfoliating scrubs by massaging the cream into the skin. The abrasive agent acts to remove dead skin cells and the niacinamide is brought into direct contact with the affected areas. The cream is then removed by washing the area with water, and if desired, a mild soap. […] The frequency with which the exfoliating scrub is applied depends upon several factors, including the severity of the skin condition, and the user's skin type and sensitivity. Patients having oily skin may use the scrub as often as once to twice per day. Patients having dry skin or sensitive skin generally will use the scrub less often. The precise frequency is determined on a case by case basis influenced by the actual results achieved. As described above, the cream is topically applied to the area to be treated and is gently massaged into the skin. The cream is then immediately removed, preferably with warm water. The skin may beneficially be thoroughly cleansed prior to application of the cream of the present invention. In all cases the scrub is washed from the skin immediately after use.

Each structure is given as a SMILES string.

Take `NC(=O)c1cccnc1` [niacinamide]: the “therapeutic effect on acne” value is reported as “beneficial therapeutic effect on acne”.

The values are drawn from US6432430B1, “Exfoliating scrub with niacinamide” (priority 2000, dated 2002).
